Data set [1] in a line: pKa value of the compound. In kind it is physicochemical.
Data set [2] can be described thus: Inhibition of [3H]diltiazem binding to L-type calcium channel of rabbit skeletal muscle at 30 uM. The settings on record: Oryctolagus cuniculus, Muscle tissue. In kind it is functional.
Data set [3] is described as follows: Inhibition of [3H]diltiazem binding to L-type calcium channel of rabbit skeletal muscle. In kind it is functional, tissue-based, Oryctolagus cuniculus, Muscle tissue.
For another data set, the target named is Substance-P receptor (Homo sapiens, UniProt P25103). The data set can be described thus: Displacement of [125I]- Substance P from human Neurokinin 1 (hNK1) receptor expressed in CHO cells. In kind it is cell-based. In general terms: In a radioligand displacement assay an active substance lowers the binding of a labelled ligand.
The target in the next data set is T1, Neuromedin-K receptor (Homo sapiens, UniProt P29371).
T1 sequence (P29371 whole entry): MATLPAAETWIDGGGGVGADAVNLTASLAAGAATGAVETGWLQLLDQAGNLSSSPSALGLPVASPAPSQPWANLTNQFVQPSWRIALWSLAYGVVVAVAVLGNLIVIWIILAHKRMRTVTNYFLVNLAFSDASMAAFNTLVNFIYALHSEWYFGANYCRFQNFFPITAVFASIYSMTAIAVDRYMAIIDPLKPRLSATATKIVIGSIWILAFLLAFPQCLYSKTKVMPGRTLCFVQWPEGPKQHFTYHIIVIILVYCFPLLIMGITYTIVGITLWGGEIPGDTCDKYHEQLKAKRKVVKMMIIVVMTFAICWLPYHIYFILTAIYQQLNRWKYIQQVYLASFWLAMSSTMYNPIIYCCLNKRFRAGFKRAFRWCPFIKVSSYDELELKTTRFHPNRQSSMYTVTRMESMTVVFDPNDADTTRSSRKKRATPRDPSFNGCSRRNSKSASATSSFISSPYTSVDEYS
The data set can be described thus: Tested for inhibition of human Tachykinin receptor 3.

In another data set the target is T2, Substance-K receptor (Homo sapiens, UniProt P21452).
T2 sequence (P21452 whole entry): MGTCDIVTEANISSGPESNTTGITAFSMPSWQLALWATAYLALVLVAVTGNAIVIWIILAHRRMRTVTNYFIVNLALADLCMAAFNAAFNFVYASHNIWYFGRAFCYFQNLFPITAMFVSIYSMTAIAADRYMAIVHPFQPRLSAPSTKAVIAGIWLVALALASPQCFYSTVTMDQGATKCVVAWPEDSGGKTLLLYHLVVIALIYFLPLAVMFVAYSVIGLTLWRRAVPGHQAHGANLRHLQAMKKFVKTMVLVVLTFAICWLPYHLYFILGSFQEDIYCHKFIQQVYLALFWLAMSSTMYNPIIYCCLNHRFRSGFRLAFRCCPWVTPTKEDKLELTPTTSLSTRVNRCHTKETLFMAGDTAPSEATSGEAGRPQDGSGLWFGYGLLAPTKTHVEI
The data set can be described thus: Tested for inhibition of human Neurokinin Tachykinin receptor 2.

A short description of data set [4]: Inhibition of [3H]diltiazem binding to L-type calcium channel of rabbit skeletal muscle at 5 uM. In kind it is functional. The settings on record: Oryctolagus cuniculus, Muscle tissue.

A value given as a limit tells only on which side of the number the result lay.

Substance-P receptor, sequence (P25103 whole entry): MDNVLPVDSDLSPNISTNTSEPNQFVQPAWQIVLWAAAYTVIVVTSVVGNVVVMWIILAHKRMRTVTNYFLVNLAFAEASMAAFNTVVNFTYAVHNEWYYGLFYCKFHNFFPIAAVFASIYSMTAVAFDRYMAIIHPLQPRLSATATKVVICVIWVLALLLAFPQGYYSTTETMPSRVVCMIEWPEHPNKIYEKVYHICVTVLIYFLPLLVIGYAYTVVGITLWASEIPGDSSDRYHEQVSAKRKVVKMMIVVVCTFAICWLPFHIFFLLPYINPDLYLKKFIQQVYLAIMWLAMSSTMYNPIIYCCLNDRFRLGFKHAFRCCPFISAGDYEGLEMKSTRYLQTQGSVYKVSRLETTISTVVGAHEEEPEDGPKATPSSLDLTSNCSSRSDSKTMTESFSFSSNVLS

By pKa is commonly meant the negative logarithm of the acid dissociation constant. By inhibition is commonly meant the drop in the measured response relative to a control, in per cent. Consider `NC(=O)CN1CCC[C@H](OCc2cc(C(F)(F)F)cc(C(F)(F)F)c2)[C@@H]1c1ccccc1`, for which the pKa in data set [1] amounted to 5.4. Further, the inhibition at 30 µM in data set [2] turned out to be 16%.

The IC50 is the midpoint of a concentration-inhibition curve. On to `FC(F)(F)c1cc(CO[C@H]2CCCN[C@H]2c2ccccc2)cc(C(F)(F)F)c1`, for which the 50% inhibitory concentration (IC50) is 760 nM in data set [3], 0.87 nM at Substance-P receptor, over 1000 nM on Neuromedin-K receptor and over 1000 nM against Substance-K receptor.

For the molecule `O=C(O)CN1CCC[C@H](OCc2cc(C(F)(F)F)cc(C(F)(F)F)c2)[C@@H]1c1ccccc1`, in data set [4], the inhibition at 5 µM worked out at 7%.

For `COC(=O)C(=O)N1CCC[C@H](OCc2cc(C(F)(F)F)cc(C(F)(F)F)c2)[C@@H]1c1ccccc1`, in data set [4], the inhibition at 5 µM came out at 0%.

Take `CN1CCC[C@H](OCc2cc(C(F)(F)F)cc(C(F)(F)F)c2)[C@@H]1c1ccccc1`: the IC50 in data set [3] is 720 nM.

`CNC(=O)CN1CCC[C@H](OCc2cc(C(F)(F)F)cc(C(F)(F)F)c2)[C@@H]1c1ccccc1`: the inhibition at 5 µM in data set [4] is 0%.

For `NC(=O)C(=O)N1CCC[C@H](OCc2cc(C(F)(F)F)cc(C(F)(F)F)c2)[C@@H]1c1ccccc1`, the inhibition at 5 µM in data set [4] amounted to 0%. At Substance-P receptor, this molecule showed an IC50 of 25 nM.

Regarding `CC(=O)N1CCC[C@H](OCc2cc(C(F)(F)F)cc(C(F)(F)F)c2)[C@@H]1c1ccccc1`, in data set [4], the inhibition at 5 µM was 0%.

Turning to `NC(=O)CCCN1CCC[C@H](OCc2cc(C(F)(F)F)cc(C(F)(F)F)c2)[C@@H]1c1ccccc1`, in data set [4], the inhibition at 5 µM came to 98%.

As to `CN(C)C(=O)CN1CCC[C@H](OCc2cc(C(F)(F)F)cc(C(F)(F)F)c2)[C@@H]1c1ccccc1`, the inhibition at 5 µM in data set [4] turned out to be 0%.

Consider `FC(F)(F)c1cc(CO[C@H]2CCCN(Cc3ccccc3)[C@H]2c2ccccc2)cc(C(F)(F)F)c1`, for which the IC50 in data set [3] was found to be 4.1 nM.

For the molecule `COC(=O)CN1CCC[C@H](OCc2cc(C(F)(F)F)cc(C(F)(F)F)c2)[C@@H]1c1ccccc1`, in data set [3], the IC50 is 26 nM.

In turn, `NC(=O)CCN1CCC[C@H](OCc2cc(C(F)(F)F)cc(C(F)(F)F)c2)[C@@H]1c1ccccc1` returned a pKa in data set [1] of 6.5. Besides, the inhibition at 5 µM in data set [4] was 98%.

In turn, `COc1ccccc1CN[C@H]1CCCN(CC(N)=O)[C@H]1c1ccccc1` (racemic) gave an IC50 at Substance-P receptor of 227 nM.
